Assay: log P by HPLC on a reversed-phase column (C18), EEC Directive 79/831 Annex V.A8
Assay type: physicochemical
Conditions: HCOOH
Experimental: The stated log P values were determined in accordance with EEC Directive 79/831 Annex V.A8 by HPLC (High Performance Liquid Chromatography) using a reversed-phase column (C18).

| Structure (SMILES) | log P (HCOOH) |
| --- | --- |
| CC(NC(=O)c1ccc(-n2nc(C(F)(F)F)c(-c3cc(Cl)cc(Cl)c3)c2N)nc1)C(F)(F)F (stereo not drawn) [I-A-Q2-100] | I-A-Q2-100: log P (HCOOH): 4.96 |
| Cc1cc(-n2nc(C(F)(F)F)c(-c3cc(Cl)cc(Cl)c3)c2Cl)ccc1C(=O)NCc1ncccn1 [I-A-Q2-277] | I-A-Q2-277: log P (HCOOH): 4.56 |
| Cc1cc(-n2nc(C(F)(F)F)c(-c3cc(Cl)cc(Cl)c3)c2N)ccc1C(=O)NCc1ncccn1 [I-A-Q2-018] | I-A-Q2-018: log P (HCOOH): 3.56 |
| CC(NC(=O)c1ccc(-n2nc(C(F)(F)F)c(-c3cccc(Cl)c3)c2N)cc1)c1ccccn1 (stereo not drawn) [I-A-Q2-087] | I-A-Q2-087: log P (HCOOH): 2.80 |
| Cc1cc(-n2nc(C(F)(F)F)c(-c3cc(Cl)cc(Cl)c3)c2N)ccc1C(=O)NCc1ncc(C(F)(F)F)cc1Cl [I-A-Q2-230] | I-A-Q2-230: log P (HCOOH): 4.89 |
| Cc1cc(C)cc(-c2c(C(F)(F)F)nn(-c3ccc(C(=O)NC4CC4)cc3)c2N)c1 [I-A-Q2-179] | I-A-Q2-179: log P (HCOOH): 3.24 |
| Cc1cc(-n2nc(C(F)(F)F)c(-c3cc(Cl)cc(Cl)c3)c2N)ccc1C(=O)NC1COC1 [I-A-Q2-044] | I-A-Q2-044: log P (HCOOH): 3.42 |
| Cc1cc(-n2nc(C(F)(F)F)c(-c3cc(Cl)cc(Cl)c3)c2N)ccc1C(=O)NC1CC1 [I-A-Q2-228] | I-A-Q2-228: log P (HCOOH): 3.78 |
| Cc1cc(-n2nc(C(F)(F)c3ccc(C(F)(F)F)cc3)c(-c3cc(Cl)cc(C(F)(F)F)c3)c2N)ccc1C(=O)NCC(F)(F)C(F)F [I-A-Q2-289] | I-A-Q2-289: log P (HCOOH): 4.95 |
| C[S+]([O-])c1cc(-n2nc(C(F)(F)F)c(-c3cc(Cl)cc(Cl)c3)c2N)ccc1C(=O)NCc1ccccn1 (stereo not drawn) [I-A-Q2-424] | I-A-Q2-424: log P (HCOOH): 2.75 |
| Cc1cc(-n2nc(C(F)(F)F)c(-c3cc(Cl)cc(Cl)c3)c2N)ccc1C(=O)NCc1cccc(Cl)c1 [I-A-Q2-215] | I-A-Q2-215: log P (HCOOH): 4.76 |
| Cc1cc(-n2nc(C(F)(F)F)c(-c3cc(Cl)cc(Cl)c3)c2N)ccc1C(=O)NCc1ccccc1 [I-A-Q2-271] | I-A-Q2-271: log P (HCOOH): 4.45 |
| CSCCNC(=O)c1ccc(-n2nc(C(F)(F)F)c(-c3cc(Cl)cc(Cl)c3)c2N)cc1C [I-A-Q2-205] | I-A-Q2-205: log P (HCOOH): 4.17 |
| CC(NC(=O)c1ccc(-n2nc(C(F)(F)F)c(-c3ccc(Br)cc3)c2N)cc1)C(F)(F)F (stereo not drawn) [I-A-Q2-188] | I-A-Q2-188: log P (HCOOH): 3.78 |
| Nc1c(-c2cc(Cl)cc(Cl)c2)c(C(F)(F)F)nn1-c1ccc(C(=O)NC2CCC2)cc1 [I-A-Q2-141] | I-A-Q2-141: log P (HCOOH): 4.21 |
| COC(=O)CC(NC(=O)c1ccc(-n2nc(C(F)(F)F)c(-c3cc(Cl)cc(Cl)c3)c2N)cc1C)c1ccccn1 (stereo not drawn) [I-A-Q2-057] | I-A-Q2-057: log P (HCOOH): 2.72 |
| CCc1nn(-c2ccc(C(=O)NCC(F)(F)C(F)F)c(C)c2)c(N)c1-c1ccc(Cl)cc1 [I-A-Q2-339] | I-A-Q2-339: log P (HCOOH): 3.27 |
| Nc1c(-c2cc(Cl)cc(Cl)c2)c(C(F)(F)F)nn1-c1ccc(C(=O)NC2CC2)cn1 [I-A-Q2-106] | I-A-Q2-106: log P (HCOOH): 4.30 |
| Cc1cc(-n2nc(C(F)(F)OC(F)(F)C(F)(F)OC(F)(F)F)c(-c3cc(Cl)cc(C(F)(F)F)c3)c2N)ccc1C(=O)NCC(F)(F)C(F)F [I-A-Q2-287] | I-A-Q2-287: log P (HCOOH): 5.33 |
| CC(NC(=O)c1ccc(-n2nc(C(F)(F)F)c(-c3cccc(F)c3)c2N)cc1)C(F)(F)F (stereo not drawn) [I-A-Q2-182] | I-A-Q2-182: log P (HCOOH): 3.33 |
| Cc1cc(-n2nc(C(F)(F)F)c(-c3cc(Cl)cc(Cl)c3)c2N)ccc1C(=O)NC(C)C(F)(F)F (stereo not drawn) [I-A-Q2-011] | I-A-Q2-011: log P (HCOOH): 4.54 |

| Structure (SMILES) | log P (HCOOH) |
| --- | --- |
| CC(NC(=O)c1ccc(-n2nc(-c3ccccc3)c(-c3ccc(Cl)cc3)c2N)cc1)C(F)(F)F (stereo not drawn) [I-A-Q2-075] | I-A-Q2-075: log P (HCOOH): 3.94 |
| Cc1cc(-n2nc(C(F)(F)F)c(-c3cc(Cl)cc(Cl)c3)c2N)ccc1C(=O)NC(C)c1cccnc1 (stereo not drawn) [I-A-Q2-231] | I-A-Q2-231: log P (HCOOH): 2.69 |
| Cc1cc(-n2nc(C(F)(F)F)c(-c3cc(Cl)cc(Cl)c3)c2N)ccc1C(=O)NC(=C(Cl)C#N)C(F)(F)F [I-A-Q2-047] | I-A-Q2-047: log P (HCOOH): 4.94 |
| COC(=O)c1ccc(-n2nc(C(F)(F)F)c(Br)c2N)cc1C [XI-A-082] | XI-A-082: log P (HCOOH): 3.52 |
| Cc1cc(CNC(=O)c2ccc(-n3nc(C(F)(F)F)c(-c4cc(Cl)cc(Cl)c4)c3N)cc2C)[nH]n1 [I-A-Q2-259] | I-A-Q2-259: log P (HCOOH): 3.33 |
| CC(NC(=O)c1ccc(-n2nc(-c3ccccc3)c(-c3ccc(Cl)cc3)c2N)cc1)c1ccccc1 (stereo not drawn) [I-A-Q2-077] | I-A-Q2-077: log P (HCOOH): 4.17 |
| Cc1cc(-n2nc(C(F)(F)F)c(-c3cc(Cl)cc(Cl)c3)c2N)ccc1C(=O)N(C)C(C)c1cccnc1 (stereo not drawn) [I-A-Q2-208] | I-A-Q2-208: log P (HCOOH): 3.19 |
| Cc1cc(-n2nc(C)c(-c3cc(F)ccc3F)c2N)ccc1C(=O)NCc1ccccn1 [I-A-Q2-372] | I-A-Q2-372: log P (HCOOH): 1.61 |
| CC(NC(=O)c1ccc(-n2nc(C(F)(F)F)c(-c3cccc(Cl)c3)c2N)cc1)c1ccccc1 (stereo not drawn) [I-A-Q2-089] | I-A-Q2-089: log P (HCOOH): 3.89 |
| Nc1c(-c2cccc(Br)c2)c(C(F)(F)F)nn1-c1ccc(C(=O)NCc2ccccn2)cc1 [I-A-Q2-174] | I-A-Q2-174: log P (HCOOH): 2.50 |
| Cc1cc(-n2nc(C)c(-c3cc(Cl)ccc3Cl)c2N)ccc1C(=O)NCc1ccccn1 [I-A-Q2-375] | I-A-Q2-375: log P (HCOOH): 2.04 |
| Nc1c(-c2cccc(Cl)c2)c(C(F)(F)F)nn1-c1ccc(C(=O)NCC(F)(F)F)cc1 [I-A-Q2-085] | I-A-Q2-085: log P (HCOOH): 3.47 |
| Cc1cc(-n2nc(C(F)(F)Oc3ccc(Cl)c(Cl)c3)c(-c3cc(Cl)cc(C(F)(F)F)c3)c2N)ccc1C(=O)NCC(F)(F)C(F)F [I-A-Q2-300] | I-A-Q2-300: log P (HCOOH): 5.40 |
| Nc1c(-c2cc(Cl)cc(Cl)c2)c(C(F)(F)F)nn1-c1ccc(C(=O)NCc2ncccn2)cn1 [I-A-Q2-108] | I-A-Q2-108: log P (HCOOH): 3.80 |
| Cc1cc(-n2nc(C(F)(F)F)c(-c3ccccc3C)c2N)ccc1C(=O)NCC(F)(F)C(F)F [I-A-Q2-317] | I-A-Q2-317: log P (HCOOH): 3.32 |
| Cc1cc(-n2nc(C(F)(F)F)c(-c3cc(Cl)cc(Cl)c3)c2N)ccc1C(=O)NCCC(F)=C(F)F [I-A-Q2-061] | I-A-Q2-061: log P (HCOOH): 4.45 |
| Cc1ncc(CNC(=O)c2ccc(-n3nc(C(F)(F)F)c(-c4cc(Cl)cc(Cl)c4)c3N)cc2C)c(N)n1 [I-A-Q2-053] | I-A-Q2-053: log P (HCOOH): 2.04 |
| Cc1cc(-n2nc(C(F)(F)F)c(-c3cc(Cl)cc(Cl)c3)c2N)ccc1C(=O)NCC(F)(F)C(F)(F)C(F)(F)F [I-A-Q2-266] | I-A-Q2-266: log P (HCOOH): 4.89 |
| Cc1cc(-n2nc(CC(C)C)c(-c3ccc(Cl)cc3)c2N)ccc1C(=O)NCC(F)(F)C(F)F [I-A-Q2-342] | I-A-Q2-342: log P (HCOOH): 3.85 |
| CC(NC(=O)c1cnc(-n2nc(C(F)(F)F)c(-c3cc(Cl)cc(Cl)c3)c2N)nc1C(F)(F)F)c1ccccn1 (stereo not drawn) [I-A-Q2-021] | I-A-Q2-021: log P (HCOOH): 3.48 |
| Cc1cc(-n2nc(C(F)(F)F)c(-c3ccc(Cl)cc3Cl)c2N)ccc1C(=O)NCC1CC1 [I-A-Q2-410] | I-A-Q2-410: log P (HCOOH): 3.94 |

Same assay, conditions: HCOOH; Table 4, compounds of formula I-A-Q4

| Structure (SMILES) | log P (HCOOH) |
| --- | --- |
| Nc1c(-c2c(F)cc(F)cc2F)c(C(F)(F)F)nn1-c1ccc(Cl)cn1 [I-A-Q4-046] | I-A-Q4-046: log P (HCOOH): 4.46 |
| CCS(=O)(=O)c1ccc(-n2nc(C(F)(F)F)c(-c3cc(Cl)cc(Cl)c3)c2N)c(F)c1 [I-A-Q4-019] | I-A-Q4-019: log P (HCOOH): 3.94 |
| CSc1c(-c2ccc(Cl)c(Cl)c2)c(C(F)(F)F)nn1-c1ncc(Cl)cn1 [I-A-Q4-020] | I-A-Q4-020: log P (HCOOH): 5.22 |
| Nc1c(-c2ccc(Cl)cc2)c(-c2ccccc2)nn1-c1ccc(Cl)cn1 [I-A-Q4-028] | I-A-Q4-028: log P (HCOOH): 5.64 |
| Nc1c(-c2cccc(Cl)c2)c(C(F)(F)F)nn1-c1ccc(C(=O)O)cc1 [I-A-Q4-096] | I-A-Q4-096: log P (HCOOH): 3.20 |
| Nc1c(-c2cccc(F)c2)c(C(F)(F)F)nn1-c1ccc(Cl)cn1 [I-A-Q4-049] | I-A-Q4-049: log P (HCOOH): 4.51 |
| Nc1c(-c2cc(Cl)cc(Cl)c2)c(C(F)(F)F)nn1-c1ccc(F)c(F)c1 [I-A-Q4-109] | I-A-Q4-109: log P (HCOOH): 4.77 |
| Nc1c(-c2ccc(F)c(F)c2)c(C(F)(F)F)nn1-c1ccc(Cl)cn1 [I-A-Q4-050] | I-A-Q4-050: log P (HCOOH): 4.64 |
| Nc1c(-c2cc(F)cc(Cl)c2)c(C(F)(F)F)nn1-c1ccc(C(=O)O)cc1 [I-A-Q4-100] | I-A-Q4-100: log P (HCOOH): 3.32 |

Same assay, conditions: HPLC, reversed-phase C18, mobile phase with formic acid

| Structure (SMILES) | log P (HCOOH) |
| --- | --- |
| N#Cc1cc(-n2nc(C(F)(F)F)c(-c3cc(F)c(F)c(F)c3)c2N)ccc1-n1cncn1 [I-A-Q1-041] | I-A-Q1-041: log P (HCOOH): 3.19 |
| N#Cc1cc(-n2nc(C(F)(F)F)c(-c3ccccc3Cl)c2N)ccc1-n1cncn1 [I-A-Q1-035] | I-A-Q1-035: log P (HCOOH): 2.80 |
| N#Cc1cc(-n2nc(C(F)(F)Oc3cccc(Cl)c3)c(-c3cc(Cl)cc(C(F)(F)F)c3)c2N)ccc1-n1cncn1 [I-A-Q1-072] | I-A-Q1-072: log P (HCOOH): 4.82 |
| N#Cc1cc(-n2nc(C(F)(F)F)c(-c3cc(Cl)cc(Cl)c3)c2N)ccc1-n1nc(C(F)(F)F)nc1N [I-A-Q1-093] | I-A-Q1-093: log P (HCOOH): 4.00 |
| N#Cc1cc(-n2nc(C(F)(F)F)c(-c3ccc(Cl)c(Cl)c3)c2N)ccc1-n1cncn1 [I-A-Q1-031] | I-A-Q1-031: log P (HCOOH): 3.60 |
| N#Cc1cc(-n2nc(C(F)(F)F)c(-c3cccc(F)c3)c2N)ccc1-n1cncn1 [I-A-Q1-042] | I-A-Q1-042: log P (HCOOH): 2.84 |
| Cc1cc(C)cc(-c2c(C(F)(F)F)nn(-c3ccc(-n4cncn4)c(C#N)c3)c2N)c1 [I-A-Q1-038] | I-A-Q1-038: log P (HCOOH): 3.33 |
| N#Cc1cc(-n2nc(C(F)(F)F)c(-c3cc(Cl)cc(Cl)c3)c2N)ccc1-n1cc(Br)cn1 [I-A-Q1-078] | I-A-Q1-078: log P (HCOOH): 4.83 |

Same assay, conditions: HPLC, reversed-phase C18, mobile phase with formic acid; read-out: log P (HCOOH)

| Structure (SMILES) | chromatographic logP |
| --- | --- |
| N#Cc1cc(N)ccc1-n1cncn1 [5-Amino-2-[1,2,4]triazol-1-ylbenzonitrile] | 1.01 |

Reference: US20110190365A1, “Insecticidal 4-phenyl-1H-pyrazoles” (Bayer Crop Science AG, priority 2008, published 2011)
